Values quoted from earlier work as cited in patent publication EP0858808B1, “Peptides for use in wound treatment” (Johnson & Johnson Medical Ltd., priority 1997, dated 2003).

Tested on: human fibroblast
Details: concentration range 2.5 mM to 25 mM

Gly-Pro-Ala
chemotactic activity: no chemotactic activity
